Assay results published in ChEMBL document CHEMBL1145498, “A systematic interaction map of validated kinase inhibitors with Ser/Thr kinases” (Proc Natl Acad Sci U S A, 2007).

Biological target: Mitogen-activated protein kinase 6 (Homo sapiens) (UniProt Q16659)

ΔTm [°C] | Compound
0.9 | Oc1cc(O)cc(/C=C/c2ccc(O)c(O)c2)c1 [PICEATANNOL]
0 | O=S(=O)(c1cccc2c(Cl)cccc12)N1CCCNCC1

Compound | ΔTm [°C]
N=C(N)NCCNS(=O)(=O)c1cccc2cnccc12 | 0.4

Biological target: Dual specificity protein kinase CLK3 (Homo sapiens) (UniProt P49761)

ΔTm [°C] | Compound
0.7 | Oc1cc(O)cc(/C=C/c2ccc(O)c(O)c2)c1 [PICEATANNOL]
-0.2 | O=S(=O)(c1cccc2c(Cl)cccc12)N1CCCNCC1

Compound | ΔTm [°C]
N=C(N)NCCNS(=O)(=O)c1cccc2cnccc12 | 0

Biological target: T1, Myotonin-protein kinase (Homo sapiens) (UniProt Q09013)
T1 sequence (whole entry): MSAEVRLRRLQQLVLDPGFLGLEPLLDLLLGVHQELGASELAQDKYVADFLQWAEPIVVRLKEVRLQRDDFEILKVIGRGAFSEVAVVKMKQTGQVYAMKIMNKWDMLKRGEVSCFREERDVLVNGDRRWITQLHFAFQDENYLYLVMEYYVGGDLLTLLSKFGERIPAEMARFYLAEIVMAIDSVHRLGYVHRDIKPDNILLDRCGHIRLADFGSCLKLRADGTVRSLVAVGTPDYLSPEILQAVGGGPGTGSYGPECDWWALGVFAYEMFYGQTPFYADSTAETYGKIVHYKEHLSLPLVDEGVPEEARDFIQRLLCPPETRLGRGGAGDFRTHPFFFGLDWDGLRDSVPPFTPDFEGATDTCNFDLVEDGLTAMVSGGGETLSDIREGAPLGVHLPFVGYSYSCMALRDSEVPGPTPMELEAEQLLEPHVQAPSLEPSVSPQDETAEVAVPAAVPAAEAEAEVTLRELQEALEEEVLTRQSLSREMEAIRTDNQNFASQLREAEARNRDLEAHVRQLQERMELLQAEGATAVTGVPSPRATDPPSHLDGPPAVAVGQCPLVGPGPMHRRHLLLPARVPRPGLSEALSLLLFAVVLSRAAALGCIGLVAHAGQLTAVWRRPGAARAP

ΔTm [°C] | Compound
-0.5 | Oc1cc(O)cc(/C=C/c2ccc(O)c(O)c2)c1 [PICEATANNOL]
-0.2 | O=S(=O)(c1cccc2c(Cl)cccc12)N1CCCNCC1

Compound | ΔTm [°C]
N=C(N)NCCNS(=O)(=O)c1cccc2cnccc12 | 0.2

Biological target: not listed separately
Assay: Binding affinity at PKC

IC50 [µM] | Compound | Ki [µM]
8 | Oc1cc(O)cc(/C=C/c2ccc(O)c(O)c2)c1 [PICEATANNOL] | 
 | O=S(=O)(c1cccc2c(Cl)cccc12)N1CCCNCC1 | 54
 | N=C(N)NCCNS(=O)(=O)c1cccc2cnccc12 | 40

Biological target: Serine/threonine-protein kinase PLK1 (Homo sapiens) (UniProt P53350)

ΔTm [°C] | Compound
2.3 | Oc1cc(O)cc(/C=C/c2ccc(O)c(O)c2)c1 [PICEATANNOL]
0 | O=S(=O)(c1cccc2c(Cl)cccc12)N1CCCNCC1

Compound | ΔTm [°C]
N=C(N)NCCNS(=O)(=O)c1cccc2cnccc12 | 0.3

Biological target: Calcium/calmodulin-dependent protein kinase type II subunit alpha (Homo sapiens) (UniProt Q9UQM7)

ΔTm [°C] | Compound
0.8 | Oc1cc(O)cc(/C=C/c2ccc(O)c(O)c2)c1 [PICEATANNOL]
0.5 | O=S(=O)(c1cccc2c(Cl)cccc12)N1CCCNCC1

Compound | ΔTm [°C]
N=C(N)NCCNS(=O)(=O)c1cccc2cnccc12 | 0.3

Biological target: Mitogen-activated protein kinase 3 (Homo sapiens, UniProt P27361)
Sequence (P27361 whole entry): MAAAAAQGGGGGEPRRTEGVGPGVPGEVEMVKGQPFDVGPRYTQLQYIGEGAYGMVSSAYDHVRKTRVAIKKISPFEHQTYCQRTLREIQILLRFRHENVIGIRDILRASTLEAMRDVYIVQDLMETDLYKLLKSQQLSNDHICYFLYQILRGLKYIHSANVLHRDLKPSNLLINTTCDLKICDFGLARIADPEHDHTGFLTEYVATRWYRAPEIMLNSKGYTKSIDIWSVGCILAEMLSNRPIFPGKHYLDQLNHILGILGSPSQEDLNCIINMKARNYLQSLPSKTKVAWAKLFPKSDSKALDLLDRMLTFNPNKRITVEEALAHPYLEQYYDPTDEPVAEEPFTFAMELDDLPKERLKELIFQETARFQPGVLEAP

ΔTm [°C] | Compound
0.2 | Oc1cc(O)cc(/C=C/c2ccc(O)c(O)c2)c1 [PICEATANNOL]
0.4 | O=S(=O)(c1cccc2c(Cl)cccc12)N1CCCNCC1

Compound | ΔTm [°C]
N=C(N)NCCNS(=O)(=O)c1cccc2cnccc12 | 0.1

Biological target: Calcium/calmodulin-dependent protein kinase type II subunit gamma (Homo sapiens) (UniProt Q13555)
Sequence (Q13555 whole entry): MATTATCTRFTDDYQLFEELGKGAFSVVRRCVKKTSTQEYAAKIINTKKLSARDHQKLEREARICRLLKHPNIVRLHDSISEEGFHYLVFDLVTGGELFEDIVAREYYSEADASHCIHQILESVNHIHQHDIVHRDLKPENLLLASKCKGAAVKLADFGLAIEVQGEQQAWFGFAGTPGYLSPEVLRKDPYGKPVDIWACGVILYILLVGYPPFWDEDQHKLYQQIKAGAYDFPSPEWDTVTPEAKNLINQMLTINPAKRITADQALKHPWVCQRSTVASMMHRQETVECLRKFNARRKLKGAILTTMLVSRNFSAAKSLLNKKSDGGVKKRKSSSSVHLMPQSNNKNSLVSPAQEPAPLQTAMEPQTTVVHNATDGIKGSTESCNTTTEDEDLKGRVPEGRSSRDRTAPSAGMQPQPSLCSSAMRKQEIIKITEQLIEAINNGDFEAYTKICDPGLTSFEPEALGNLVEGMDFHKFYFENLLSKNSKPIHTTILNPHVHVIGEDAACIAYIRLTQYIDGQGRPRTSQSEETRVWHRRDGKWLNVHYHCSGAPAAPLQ

ΔTm [°C] | Compound
0.2 | Oc1cc(O)cc(/C=C/c2ccc(O)c(O)c2)c1 [PICEATANNOL]
0.3 | O=S(=O)(c1cccc2c(Cl)cccc12)N1CCCNCC1

Compound | ΔTm [°C]
N=C(N)NCCNS(=O)(=O)c1cccc2cnccc12 | 0

Biological target: TRAF2 and NCK-interacting protein kinase (Homo sapiens) (UniProt Q9UKE5)
Sequence (Q9UKE5 whole entry, looked up): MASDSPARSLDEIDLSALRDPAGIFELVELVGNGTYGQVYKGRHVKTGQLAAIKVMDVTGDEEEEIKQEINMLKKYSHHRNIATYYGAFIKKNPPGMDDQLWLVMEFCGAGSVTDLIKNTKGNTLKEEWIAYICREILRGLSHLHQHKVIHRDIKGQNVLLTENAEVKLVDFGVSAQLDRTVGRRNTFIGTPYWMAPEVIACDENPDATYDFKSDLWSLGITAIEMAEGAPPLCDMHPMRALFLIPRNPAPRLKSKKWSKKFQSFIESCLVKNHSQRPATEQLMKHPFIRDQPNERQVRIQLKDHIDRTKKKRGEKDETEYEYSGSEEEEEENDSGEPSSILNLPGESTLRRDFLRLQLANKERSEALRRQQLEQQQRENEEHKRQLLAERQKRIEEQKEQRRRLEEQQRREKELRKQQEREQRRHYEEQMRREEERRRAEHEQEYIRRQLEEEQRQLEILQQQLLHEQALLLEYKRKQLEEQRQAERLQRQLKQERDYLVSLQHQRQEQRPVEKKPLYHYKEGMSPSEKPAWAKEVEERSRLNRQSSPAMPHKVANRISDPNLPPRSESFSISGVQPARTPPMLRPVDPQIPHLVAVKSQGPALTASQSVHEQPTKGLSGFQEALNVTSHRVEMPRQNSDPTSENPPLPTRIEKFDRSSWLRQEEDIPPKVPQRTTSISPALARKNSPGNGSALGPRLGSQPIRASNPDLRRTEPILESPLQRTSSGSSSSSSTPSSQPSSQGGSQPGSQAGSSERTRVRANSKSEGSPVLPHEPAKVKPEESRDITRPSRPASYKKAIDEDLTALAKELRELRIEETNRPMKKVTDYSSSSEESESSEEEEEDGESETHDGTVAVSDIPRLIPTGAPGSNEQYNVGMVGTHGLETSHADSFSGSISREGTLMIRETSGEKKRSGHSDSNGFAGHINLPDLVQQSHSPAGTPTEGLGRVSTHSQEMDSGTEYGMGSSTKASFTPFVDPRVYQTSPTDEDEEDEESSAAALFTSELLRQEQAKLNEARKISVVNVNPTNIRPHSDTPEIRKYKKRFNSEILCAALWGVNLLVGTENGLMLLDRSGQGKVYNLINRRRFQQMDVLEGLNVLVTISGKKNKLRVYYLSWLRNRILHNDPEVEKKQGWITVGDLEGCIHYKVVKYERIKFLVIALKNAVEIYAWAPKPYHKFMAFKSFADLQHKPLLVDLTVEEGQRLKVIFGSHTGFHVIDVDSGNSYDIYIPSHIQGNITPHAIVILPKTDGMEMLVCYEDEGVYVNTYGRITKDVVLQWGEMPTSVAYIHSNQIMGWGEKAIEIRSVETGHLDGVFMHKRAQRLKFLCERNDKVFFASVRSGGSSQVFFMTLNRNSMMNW

ΔTm [°C] | Compound
0.4 | Oc1cc(O)cc(/C=C/c2ccc(O)c(O)c2)c1 [PICEATANNOL]
0.1 | O=S(=O)(c1cccc2c(Cl)cccc12)N1CCCNCC1

Compound | ΔTm [°C]
N=C(N)NCCNS(=O)(=O)c1cccc2cnccc12 | 0.1

Biological target: Calcium/calmodulin-dependent protein kinase type II subunit beta (Homo sapiens) (UniProt Q13554)
Sequence (Q13554 whole entry): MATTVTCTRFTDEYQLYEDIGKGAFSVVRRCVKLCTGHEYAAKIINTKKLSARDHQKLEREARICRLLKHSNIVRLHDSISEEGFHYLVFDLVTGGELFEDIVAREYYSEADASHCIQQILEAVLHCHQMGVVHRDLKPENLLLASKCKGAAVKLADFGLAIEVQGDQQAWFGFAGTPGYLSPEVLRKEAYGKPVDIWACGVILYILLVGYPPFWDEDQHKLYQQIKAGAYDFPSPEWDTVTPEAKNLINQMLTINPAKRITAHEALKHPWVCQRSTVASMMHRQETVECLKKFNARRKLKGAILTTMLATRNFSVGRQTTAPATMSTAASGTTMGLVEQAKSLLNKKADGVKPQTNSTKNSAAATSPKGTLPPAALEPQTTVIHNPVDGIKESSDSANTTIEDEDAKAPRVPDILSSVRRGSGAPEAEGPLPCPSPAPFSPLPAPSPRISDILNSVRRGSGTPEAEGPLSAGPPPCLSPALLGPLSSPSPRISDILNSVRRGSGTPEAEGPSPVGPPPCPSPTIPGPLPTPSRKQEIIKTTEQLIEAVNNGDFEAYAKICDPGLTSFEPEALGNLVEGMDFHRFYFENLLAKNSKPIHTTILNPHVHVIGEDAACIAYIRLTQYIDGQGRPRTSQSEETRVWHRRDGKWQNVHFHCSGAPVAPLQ

ΔTm [°C] | Compound
-0.2 | Oc1cc(O)cc(/C=C/c2ccc(O)c(O)c2)c1 [PICEATANNOL]
0.3 | O=S(=O)(c1cccc2c(Cl)cccc12)N1CCCNCC1

Compound | ΔTm [°C]
N=C(N)NCCNS(=O)(=O)c1cccc2cnccc12 | 0.4

Biological target: T2, Serine/threonine-protein kinase VRK1 (Homo sapiens) (UniProt Q99986)
T2 sequence (whole entry): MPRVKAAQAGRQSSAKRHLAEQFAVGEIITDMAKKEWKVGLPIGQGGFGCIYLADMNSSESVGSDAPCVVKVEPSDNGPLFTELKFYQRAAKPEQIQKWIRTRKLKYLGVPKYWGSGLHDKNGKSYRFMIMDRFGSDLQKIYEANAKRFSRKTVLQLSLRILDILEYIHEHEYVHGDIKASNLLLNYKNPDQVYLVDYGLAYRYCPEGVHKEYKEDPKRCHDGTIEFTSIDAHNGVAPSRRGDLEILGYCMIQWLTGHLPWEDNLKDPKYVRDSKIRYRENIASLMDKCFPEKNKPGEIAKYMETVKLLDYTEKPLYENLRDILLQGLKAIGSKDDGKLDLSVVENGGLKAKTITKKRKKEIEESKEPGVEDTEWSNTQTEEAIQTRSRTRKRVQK

ΔTm [°C] | Compound
0.2 | Oc1cc(O)cc(/C=C/c2ccc(O)c(O)c2)c1 [PICEATANNOL]
0.3 | O=S(=O)(c1cccc2c(Cl)cccc12)N1CCCNCC1

Compound | ΔTm [°C]
N=C(N)NCCNS(=O)(=O)c1cccc2cnccc12 | 0.3

Biological target: Death-associated protein kinase 3 (Homo sapiens) (UniProt O43293)
Sequence (O43293 whole entry, looked up): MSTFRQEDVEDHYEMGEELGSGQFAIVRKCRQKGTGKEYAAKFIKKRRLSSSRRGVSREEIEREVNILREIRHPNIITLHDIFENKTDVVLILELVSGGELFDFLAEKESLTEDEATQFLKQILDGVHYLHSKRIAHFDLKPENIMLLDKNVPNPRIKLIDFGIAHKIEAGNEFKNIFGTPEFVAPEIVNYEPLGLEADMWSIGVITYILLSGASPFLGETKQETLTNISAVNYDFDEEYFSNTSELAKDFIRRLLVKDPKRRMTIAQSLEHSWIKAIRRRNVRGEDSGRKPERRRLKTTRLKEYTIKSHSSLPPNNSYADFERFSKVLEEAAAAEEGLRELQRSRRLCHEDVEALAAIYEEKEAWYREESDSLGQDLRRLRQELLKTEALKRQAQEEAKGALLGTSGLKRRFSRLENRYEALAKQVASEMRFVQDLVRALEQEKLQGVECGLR

Compound | ΔTm [°C]
Oc1cc(O)cc(/C=C/c2ccc(O)c(O)c2)c1 [PICEATANNOL] | 4.6
O=S(=O)(c1cccc2c(Cl)cccc12)N1CCCNCC1 | 2.5
N=C(N)NCCNS(=O)(=O)c1cccc2cnccc12 | 2

Biological target: Casein kinase I isoform gamma-1 (Homo sapiens) (UniProt Q9HCP0)
Sequence (Q9HCP0 whole entry, looked up, canonical isoform): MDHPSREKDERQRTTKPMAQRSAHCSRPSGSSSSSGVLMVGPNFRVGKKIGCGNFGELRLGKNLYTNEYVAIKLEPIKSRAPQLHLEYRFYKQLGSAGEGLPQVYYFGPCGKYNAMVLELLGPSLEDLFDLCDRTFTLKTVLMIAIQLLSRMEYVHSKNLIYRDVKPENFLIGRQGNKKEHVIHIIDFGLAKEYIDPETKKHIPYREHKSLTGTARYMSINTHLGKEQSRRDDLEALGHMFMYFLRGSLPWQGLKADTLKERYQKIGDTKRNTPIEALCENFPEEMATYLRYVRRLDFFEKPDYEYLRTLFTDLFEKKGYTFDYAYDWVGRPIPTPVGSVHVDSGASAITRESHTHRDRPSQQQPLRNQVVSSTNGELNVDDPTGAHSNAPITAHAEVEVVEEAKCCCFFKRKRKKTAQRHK

ΔTm [°C] | Compound
0 | Oc1cc(O)cc(/C=C/c2ccc(O)c(O)c2)c1 [PICEATANNOL]
0.2 | O=S(=O)(c1cccc2c(Cl)cccc12)N1CCCNCC1

Compound | ΔTm [°C]
N=C(N)NCCNS(=O)(=O)c1cccc2cnccc12 | -0.3

Biological target: Myosin light chain kinase, smooth muscle (Homo sapiens, UniProt Q15746)
Assay: Inhibition of myosin light chain kinase

Ki [µM] | Compound
3.8 | O=S(=O)(c1cccc2c(Cl)cccc12)N1CCCNCC1

Biological target: Dual specificity protein kinase CLK2 (Homo sapiens) (UniProt P49760)

ΔTm [°C] | Compound
0.6 | Oc1cc(O)cc(/C=C/c2ccc(O)c(O)c2)c1 [PICEATANNOL]
0.6 | O=S(=O)(c1cccc2c(Cl)cccc12)N1CCCNCC1

Compound | ΔTm [°C]
N=C(N)NCCNS(=O)(=O)c1cccc2cnccc12 | 0.1

Biological target: Calcium/calmodulin-dependent protein kinase type II subunit delta (Homo sapiens) (UniProt Q13557)
Sequence (Q13557 whole entry): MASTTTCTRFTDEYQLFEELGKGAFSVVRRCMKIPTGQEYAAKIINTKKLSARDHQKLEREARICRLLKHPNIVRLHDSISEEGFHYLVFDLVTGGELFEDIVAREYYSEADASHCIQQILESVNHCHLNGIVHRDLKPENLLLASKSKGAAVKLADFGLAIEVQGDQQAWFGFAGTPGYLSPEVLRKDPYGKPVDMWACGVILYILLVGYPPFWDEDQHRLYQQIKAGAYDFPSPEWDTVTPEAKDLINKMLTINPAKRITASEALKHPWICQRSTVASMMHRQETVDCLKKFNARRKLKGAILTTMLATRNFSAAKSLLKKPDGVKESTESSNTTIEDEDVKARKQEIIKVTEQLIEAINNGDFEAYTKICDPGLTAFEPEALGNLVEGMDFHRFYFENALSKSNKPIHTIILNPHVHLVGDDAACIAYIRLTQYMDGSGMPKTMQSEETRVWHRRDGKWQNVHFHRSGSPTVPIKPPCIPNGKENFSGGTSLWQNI

ΔTm [°C] | Compound
0.1 | Oc1cc(O)cc(/C=C/c2ccc(O)c(O)c2)c1 [PICEATANNOL]
0.5 | O=S(=O)(c1cccc2c(Cl)cccc12)N1CCCNCC1

Compound | ΔTm [°C]
N=C(N)NCCNS(=O)(=O)c1cccc2cnccc12 | 0.1

Biological target: Calcium/calmodulin-dependent protein kinase type 1G (Homo sapiens) (UniProt Q96NX5)
Sequence (Q96NX5 whole entry): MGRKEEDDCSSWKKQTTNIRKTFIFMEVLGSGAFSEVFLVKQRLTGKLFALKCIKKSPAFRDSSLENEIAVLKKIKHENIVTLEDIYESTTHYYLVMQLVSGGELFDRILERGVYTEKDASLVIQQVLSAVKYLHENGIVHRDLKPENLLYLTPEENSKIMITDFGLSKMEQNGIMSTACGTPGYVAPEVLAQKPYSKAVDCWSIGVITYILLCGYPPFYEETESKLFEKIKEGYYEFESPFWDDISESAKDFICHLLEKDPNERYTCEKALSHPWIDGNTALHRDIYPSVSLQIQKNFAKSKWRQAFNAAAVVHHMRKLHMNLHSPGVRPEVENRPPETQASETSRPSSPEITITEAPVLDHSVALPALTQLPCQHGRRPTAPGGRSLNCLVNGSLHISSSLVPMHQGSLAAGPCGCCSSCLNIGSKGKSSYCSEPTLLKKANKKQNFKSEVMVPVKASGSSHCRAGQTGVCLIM

ΔTm [°C] | Compound
0.5 | Oc1cc(O)cc(/C=C/c2ccc(O)c(O)c2)c1 [PICEATANNOL]
-0.1 | O=S(=O)(c1cccc2c(Cl)cccc12)N1CCCNCC1

Compound | ΔTm [°C]
N=C(N)NCCNS(=O)(=O)c1cccc2cnccc12 | -0.4

Biological target: Serine/threonine-protein kinase OSR1 (Homo sapiens) (UniProt O95747)

ΔTm [°C] | Compound
1.6 | Oc1cc(O)cc(/C=C/c2ccc(O)c(O)c2)c1 [PICEATANNOL]
-0.5 | O=S(=O)(c1cccc2c(Cl)cccc12)N1CCCNCC1

Compound | ΔTm [°C]
N=C(N)NCCNS(=O)(=O)c1cccc2cnccc12 | 1.1

Biological target: Dual specificity mitogen-activated protein kinase kinase 2 (Homo sapiens, UniProt P36507)

ΔTm [°C] | Compound
0.2 | Oc1cc(O)cc(/C=C/c2ccc(O)c(O)c2)c1 [PICEATANNOL]
-0.3 | O=S(=O)(c1cccc2c(Cl)cccc12)N1CCCNCC1

Compound | ΔTm [°C]
N=C(N)NCCNS(=O)(=O)c1cccc2cnccc12 | -0.6

Biological target: T3, Dual specificity mitogen-activated protein kinase kinase 6 (Homo sapiens) (UniProt P52564)
T3 sequence (whole entry): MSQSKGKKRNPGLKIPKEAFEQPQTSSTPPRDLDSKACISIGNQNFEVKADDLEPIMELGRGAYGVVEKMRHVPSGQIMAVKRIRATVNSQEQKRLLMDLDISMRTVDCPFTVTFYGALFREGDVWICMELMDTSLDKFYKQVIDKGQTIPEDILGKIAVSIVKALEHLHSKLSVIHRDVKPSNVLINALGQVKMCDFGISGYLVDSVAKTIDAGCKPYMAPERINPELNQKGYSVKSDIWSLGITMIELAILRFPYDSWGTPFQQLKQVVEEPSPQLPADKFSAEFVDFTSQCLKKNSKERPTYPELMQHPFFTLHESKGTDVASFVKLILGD

ΔTm [°C] | Compound
0.1 | Oc1cc(O)cc(/C=C/c2ccc(O)c(O)c2)c1 [PICEATANNOL]
0 | O=S(=O)(c1cccc2c(Cl)cccc12)N1CCCNCC1

Compound | ΔTm [°C]
N=C(N)NCCNS(=O)(=O)c1cccc2cnccc12 | -0.1
